Data as given in paper PMC6891286, “Towards the Development of an In vivo Chemical Probe for Cyclin G Associated Kinase (GAK)” (Molecules, 2019).
Like-named read-outs stand apart in the source and are kept apart here.

Experiments:
GAK [1] = target: T1, GAK (Homo sapiens, UniProt O14976); test: TR-FRET ligand-binding displacement assay
T1 sequence (O14976 1-1311): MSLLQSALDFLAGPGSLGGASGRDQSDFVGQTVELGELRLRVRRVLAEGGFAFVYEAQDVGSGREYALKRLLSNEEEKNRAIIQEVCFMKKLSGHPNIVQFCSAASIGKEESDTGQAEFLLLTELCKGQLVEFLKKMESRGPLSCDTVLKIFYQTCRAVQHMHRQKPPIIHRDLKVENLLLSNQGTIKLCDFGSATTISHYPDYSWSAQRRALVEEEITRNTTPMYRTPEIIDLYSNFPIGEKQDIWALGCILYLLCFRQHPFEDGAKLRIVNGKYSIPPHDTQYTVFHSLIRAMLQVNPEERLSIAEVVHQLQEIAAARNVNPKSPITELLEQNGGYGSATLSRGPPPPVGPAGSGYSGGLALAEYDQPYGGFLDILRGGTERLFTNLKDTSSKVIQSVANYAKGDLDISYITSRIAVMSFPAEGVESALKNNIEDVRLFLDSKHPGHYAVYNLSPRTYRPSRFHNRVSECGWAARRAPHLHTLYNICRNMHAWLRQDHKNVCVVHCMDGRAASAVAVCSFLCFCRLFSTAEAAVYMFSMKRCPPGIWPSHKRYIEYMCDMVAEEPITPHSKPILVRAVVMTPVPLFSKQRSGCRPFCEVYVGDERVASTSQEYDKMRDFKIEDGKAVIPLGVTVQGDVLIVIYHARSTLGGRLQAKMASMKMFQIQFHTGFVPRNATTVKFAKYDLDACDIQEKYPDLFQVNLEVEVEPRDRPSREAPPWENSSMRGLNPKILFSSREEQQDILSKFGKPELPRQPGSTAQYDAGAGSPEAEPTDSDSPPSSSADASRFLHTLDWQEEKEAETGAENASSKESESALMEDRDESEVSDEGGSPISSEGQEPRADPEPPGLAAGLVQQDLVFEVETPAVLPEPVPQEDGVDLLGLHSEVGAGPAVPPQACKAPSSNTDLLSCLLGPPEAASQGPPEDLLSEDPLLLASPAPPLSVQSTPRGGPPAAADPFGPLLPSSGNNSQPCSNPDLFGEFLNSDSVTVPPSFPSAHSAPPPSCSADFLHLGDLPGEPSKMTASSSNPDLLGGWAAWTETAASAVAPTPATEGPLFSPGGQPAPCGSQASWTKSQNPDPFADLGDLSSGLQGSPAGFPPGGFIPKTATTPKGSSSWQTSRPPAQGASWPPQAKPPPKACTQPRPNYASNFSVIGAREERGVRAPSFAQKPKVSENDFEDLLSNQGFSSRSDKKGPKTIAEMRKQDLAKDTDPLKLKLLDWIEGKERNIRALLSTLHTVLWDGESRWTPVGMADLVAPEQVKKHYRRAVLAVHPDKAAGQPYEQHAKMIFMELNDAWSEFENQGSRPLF

AAK1 = AAK1 (Homo sapiens, UniProt Q2M2I8); test: NAK family TR-FRET binding displacement assay; conditions: NAK family FRET screening
BMP2K = BMP2K (Homo sapiens, UniProt Q9NSY1); test: NAK family TR-FRET binding displacement assay
STK16 = STK16 (Homo sapiens, UniProt O75716); test: NAK family TR-FRET binding displacement assay; conditions: NAK family FRET screening; read-out: Binding displacement assay STK16 Ki
[2] = mouse liver microsome metabolic stability; conditions: mouse liver microsomes; for T1/2 Ratio: normalization with respect to internal control (propranolol); for half-life: mouse, T1/2 (min), mouse liver microsomes with NADPH, mean average, n = 2
Experimental: SGC-GAK-1 (1) was incubated with MLMs in the presence or absence of added NADPH, and the compound was quantified at various time points over an hour.
The metabolic stability of the 4-anilinoquinolines (8–13) were evaluated in MLMs (Table 1). Half-lives for metabolic clearance were normalized to propranolol in each experimental run to control for variations in the MLM preparations.

GAK [3] = target: T1, GAK; test: live cell NanoBRET target engagement assay; type: cell-based; conditions: for IC50: nanoBRET, mean average, n = 2; for IC50 values in cells: live cell NanoBRET assay
Kinetic Solubility = type: physicochemical; conditions: pH 7.4, aqueous buffer, kinetic from dmso stock, PBS pH7.4 (100 µM)
[4] = TR-FRET assay, read-out: Biochemical GAK Ki
[5] = NAK family FRET screening, read-out: Binding displacement assay GAK Ki

STK16, sequence (O75716 whole entry): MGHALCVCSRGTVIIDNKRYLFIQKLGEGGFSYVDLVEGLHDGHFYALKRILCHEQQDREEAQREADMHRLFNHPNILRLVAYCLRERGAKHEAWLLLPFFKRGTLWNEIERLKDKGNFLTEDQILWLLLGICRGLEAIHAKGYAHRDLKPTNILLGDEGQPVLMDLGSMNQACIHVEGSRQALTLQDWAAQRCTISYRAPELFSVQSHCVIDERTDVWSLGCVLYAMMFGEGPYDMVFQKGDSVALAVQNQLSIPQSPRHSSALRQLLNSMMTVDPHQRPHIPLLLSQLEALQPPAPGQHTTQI
BMP2K, sequence (Q9NSY1 whole entry): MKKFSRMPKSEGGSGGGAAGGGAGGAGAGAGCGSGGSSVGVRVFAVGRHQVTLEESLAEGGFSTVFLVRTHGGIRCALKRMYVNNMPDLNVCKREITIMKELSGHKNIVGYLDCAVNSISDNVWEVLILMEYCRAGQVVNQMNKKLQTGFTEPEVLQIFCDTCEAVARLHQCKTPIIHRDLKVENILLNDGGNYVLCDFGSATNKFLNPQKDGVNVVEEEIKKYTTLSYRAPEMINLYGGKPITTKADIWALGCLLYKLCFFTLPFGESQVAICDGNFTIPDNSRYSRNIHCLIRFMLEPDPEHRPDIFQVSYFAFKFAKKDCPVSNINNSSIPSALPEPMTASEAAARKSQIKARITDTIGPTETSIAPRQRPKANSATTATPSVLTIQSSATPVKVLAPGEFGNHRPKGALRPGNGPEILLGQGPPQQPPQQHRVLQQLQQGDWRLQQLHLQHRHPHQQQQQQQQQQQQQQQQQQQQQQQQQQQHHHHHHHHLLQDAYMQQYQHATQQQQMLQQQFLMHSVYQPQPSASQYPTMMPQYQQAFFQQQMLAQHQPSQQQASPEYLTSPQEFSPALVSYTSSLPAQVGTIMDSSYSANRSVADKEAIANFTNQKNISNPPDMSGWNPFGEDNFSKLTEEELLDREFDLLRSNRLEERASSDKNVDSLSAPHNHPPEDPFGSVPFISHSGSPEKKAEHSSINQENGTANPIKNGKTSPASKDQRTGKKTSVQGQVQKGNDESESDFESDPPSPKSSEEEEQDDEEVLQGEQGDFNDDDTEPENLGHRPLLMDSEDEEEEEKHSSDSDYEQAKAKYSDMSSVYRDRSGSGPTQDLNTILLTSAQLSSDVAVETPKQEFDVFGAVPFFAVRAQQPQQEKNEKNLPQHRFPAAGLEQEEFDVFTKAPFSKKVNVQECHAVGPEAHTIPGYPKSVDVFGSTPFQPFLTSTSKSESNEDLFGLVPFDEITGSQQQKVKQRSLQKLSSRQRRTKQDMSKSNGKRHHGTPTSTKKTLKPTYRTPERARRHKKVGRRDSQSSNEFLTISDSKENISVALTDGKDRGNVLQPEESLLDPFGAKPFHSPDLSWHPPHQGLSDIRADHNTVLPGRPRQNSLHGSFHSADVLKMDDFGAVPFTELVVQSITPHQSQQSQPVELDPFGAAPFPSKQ
AAK1, sequence (Q2M2I8 whole entry): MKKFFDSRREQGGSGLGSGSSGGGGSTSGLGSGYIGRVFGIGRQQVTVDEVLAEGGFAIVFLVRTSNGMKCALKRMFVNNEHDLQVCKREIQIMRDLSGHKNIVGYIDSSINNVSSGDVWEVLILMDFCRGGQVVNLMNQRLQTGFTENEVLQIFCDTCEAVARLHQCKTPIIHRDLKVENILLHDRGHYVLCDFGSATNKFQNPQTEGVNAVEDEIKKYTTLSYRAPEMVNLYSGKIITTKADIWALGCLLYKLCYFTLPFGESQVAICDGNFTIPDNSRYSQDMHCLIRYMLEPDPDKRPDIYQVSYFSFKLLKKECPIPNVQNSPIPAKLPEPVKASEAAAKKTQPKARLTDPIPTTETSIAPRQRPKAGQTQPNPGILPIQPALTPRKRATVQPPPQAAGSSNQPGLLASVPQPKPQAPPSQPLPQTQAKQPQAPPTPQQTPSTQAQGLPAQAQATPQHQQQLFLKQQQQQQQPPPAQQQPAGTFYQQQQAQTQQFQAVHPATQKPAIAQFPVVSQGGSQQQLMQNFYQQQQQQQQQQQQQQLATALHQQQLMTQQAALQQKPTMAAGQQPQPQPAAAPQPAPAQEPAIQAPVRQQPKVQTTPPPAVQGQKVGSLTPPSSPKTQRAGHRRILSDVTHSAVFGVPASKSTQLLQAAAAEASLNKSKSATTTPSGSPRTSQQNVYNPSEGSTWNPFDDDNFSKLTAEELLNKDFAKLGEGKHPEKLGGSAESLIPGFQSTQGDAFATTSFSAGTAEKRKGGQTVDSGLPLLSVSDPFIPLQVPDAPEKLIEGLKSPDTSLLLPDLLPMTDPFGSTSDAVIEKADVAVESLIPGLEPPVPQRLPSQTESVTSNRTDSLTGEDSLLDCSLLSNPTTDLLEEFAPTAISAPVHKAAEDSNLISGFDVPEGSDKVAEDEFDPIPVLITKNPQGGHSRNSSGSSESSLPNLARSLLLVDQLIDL

Row | Structure (SMILES) | Ki (GAK [1]; [4]) [µM] | Ki (AAK1) [µM] | Ki (BMP2K) [µM] | Ki (STK16) [µM] | T1/2 Ratio [2] | half-life [2] [min] | IC50 (GAK [3]) [µM] | IC50 values in cells (GAK [3]) | Ki (GAK [1]; [5]) [µM] | solubility kinetic (Kinetic Solubility; read-out: Kinetic Solubility µM) [µM] | solubility kinetic (Kinetic Solubility; read-out: Kinetic Solubility µg/mL) [µg/mL] | T1/2 ratios fold higher than 9 [2] [fold]
1 | Fc1c(F)c(F)c(Nc2ccnc3ccc(C(F)(F)F)cc23)c(F)c1F [Compound 12] | 0.88 | > 100 | > 100 | 19 | 7.0 | 45.6 |  |  |  |  |  | 
2 | COc1cccc(Nc2ccnc3ccc(Br)cc23)c1OC [Compound 15, 6-Bromo-N-(2,3-dimethoxyphenyl)quinolin-4-amine] | 0.74 | 3.3 | 8.7 | > 100 | 0.12 | 1 | > 5 |  |  |  |  | 
3 | FC1(F)Oc2cccc(Nc3ccnc4ccc(Br)cc34)c2O1 [Compound 16, 6-Bromo-N-(2,2-difluorobenzo[d][1,3]dioxol-4-yl)quinolin-4-amine] | 0.46 | > 100 | > 100 | > 100 | 0.24 | 2 | > 5 |  |  |  |  | 
4 | Brc1ccc2nccc(Nc3cccc4c3CCO4)c2c1 [Compound 17, 6-Bromo-N-(2,3-dihydrobenzofuran-4-yl)quinolin-4-amine] | 0.0052 | > 100 | > 100 | > 100 | 0.16 | 1.7 | > 5 |  |  |  |  | 
5 | Brc1ccc2nccc(Nc3cccc4c3OCC4)c2c1 [Compound 18, 6-Bromo-N-(2,3-dihydrobenzofuran-7-yl)quinolin-4-amine] | 0.029 | 3.5 | 11 | > 100 | 0.10 | 0.82 | 2.5 |  |  |  |  | 
6 | Brc1ccc2nccc(Nc3cccc4occc34)c2c1 [Compound 19, N-(Benzofuran-4-yl)-6-bromoquinolin-4-amine] | 0.0019 | 1.9 | 11 | > 100 | 0.16 | 1.7 | 0.18 | submicromolar |  |  |  | 
7 | Brc1ccc2nccc(Nc3cccc4ccoc34)c2c1 [Compound 20, N-(Benzofuran-7-yl)-6-bromoquinolin-4-amine] | 0.0043 | 4.6 | 16 | > 100 | 0.08 | 0.9 | 0.57 | submicromolar |  |  |  | 
8 | Brc1ccc2nccc(Nc3cccc4sccc34)c2c1 [Compound 26, N-(Benzo[b]thiophen-4-yl)-6-bromoquinolin-4-amine] | 0.023 | > 100 | > 100 | > 100 | 0.50 | 4.1 | 3.3 |  |  |  |  | 
9 | Brc1ccc2nccc(Nc3cccc4nc[nH]c34)c2c1 [Compound 27, N-(1H-Benzo[d]imidazol-7-yl)-6-bromoquinolin-4-amine] |  | 1.3 | 2.3 | 26 | 1.0 | 8.1 | > 5 |  | 0.066 |  |  | 

Other lines, results leading:

Row | Ki (GAK [1]; [4]) [µM] | Ki (AAK1) [µM] | Ki (BMP2K) [µM] | Ki (STK16) [µM] | T1/2 Ratio [2] | half-life [2] [min] | IC50 (GAK [3]) [µM] | IC50 values in cells (GAK [3]) | Ki (GAK [1]; [5]) [µM] | solubility kinetic (Kinetic Solubility; read-out: Kinetic Solubility µM) [µM] | solubility kinetic (Kinetic Solubility; read-out: Kinetic Solubility µg/mL) [µg/mL] | T1/2 ratios fold higher than 9 [2] [fold] | Structure (SMILES)
10 | 0.041 | 4.6 | 13 | 11 | 0.15 | 1.2 | 2.5 |  |  |  |  |  | Brc1ccc2nccc(Nc3cccc4nonc34)c2c1 [Compound 28, N-(6-Bromoquinolin-4-yl)benzo[c][1,2,5]oxadiazol-4-amine]
11 |  | 8.7 | 20 | > 100 | 0.09 | 0.73 | > 5 |  | 2.8 |  |  |  | Cn1nnc2c(Nc3ccnc4ccc(Br)cc34)cccc21 [Compound 30, 6-Bromo-N-(1-methyl-1H-benzo[d][1,2,3]triazol-4-yl)quinolin-4-amine]
12 |  | 13 | 16 | 28 | 0.10 | 0.8 | > 5 |  | 3.6 |  |  |  | Cn1ncc2c(Nc3ccnc4ccc(Br)cc34)cccc21 [Compound 31, 6-Bromo-N-(1-methyl-1H-indazol-4-yl)quinolin-4-amine]
13 |  |  |  |  | 2.2 | 14.8 | > 5 |  |  | 2 | 0.7 |  | Fc1cc2cn[nH]c2cc1Nc1ccnc2ccc(Br)cc12 [Compound 36, 6-Bromo-N-(5-fluoro-1H-indazol-6-yl)quinolin-4-amine]
14 | 0.062 | 1.4 | 0.98 | 2.7 | 1.0 | 8.1 | > 5 |  |  |  |  |  | O=C1NCc2ccc(Nc3ccnc4ccc(Br)cc34)cc21 [Compound 38, 6-[(6-Bromoquinolin-4-yl)amino]-2,3-dihydro-1H-isoindol-1-one]
15 | 0.36 | 1.9 | 22 | 21 | >25 | > 200 | > 5 |  |  |  |  | ≥ 2 | O=c1[nH]c2ccc(Nc3ccnc4ccc(Br)cc34)cc2[nH]1 [Compound 39, 5-[(6-Bromoquinolin-4-yl)amino]-2,3-dihydro-1H-1,3-benzodiazol-2-one]
16 | 0.68 | 2.4 | 4.9 | 8.8 | 6.9 | 55.9 | > 5 |  |  |  |  | ≥ 2 | O=c1[nH]c2ccc(Nc3ccnc4ccc(Br)cc34)cc2o1 [Compound 40, 6-[(6-Bromoquinolin-4-yl)amino]-2,3-dihydro-1,3-benzoxazol-2-one]
17 | 0.11 | 37 | 79 | > 100 | 3.4 | 27.8 | > 5 |  |  |  |  | ≥ 2 | O=c1[nH]c2cc(Nc3ccnc4ccc(Br)cc34)ccc2o1 [Compound 41, 5-[(6-Bromoquinolin-4-yl)amino]-2,3-dihydro-1,3-benzoxazol-2-one]
18 | 1.6 | 4.1 | 6.6 | 9.3 | 4.2 | 33.6 | > 5 |  |  |  |  | ≥ 2 | Cn1c(=O)[nH]c2cc(Nc3ccnc4ccc(Br)cc34)ccc21 [Compound 42, 5-[(6-Bromoquinolin-4-yl)amino]-1-methyl-2,3-dihydro-1H-1,3-benzodiazol-2-one]
19 | 1.7 | 3.3 | 6.4 | 8 | 1.9 | 15.6 | > 5 |  |  |  |  |  | O=S1(=O)Cc2ccc(Nc3ccnc4ccc(Br)cc34)cc2C1 [Compound 43, 5-((6-Bromoquinolin-4-yl)amino)-1,3-dihydrobenzo[c]thiophene 2,2-dioxide]
